Where two headings read alike, the source gives them in different places.
How the values were obtained:
[1] = test system: taxane site of assembled cross-linked MTs; conditions: cited from earlier work
[2] = test system: taxane site of assembled cross-linked MTs; assay: Displacement of FTX2 from the taxane site (fluorescence polarization); type: binding, calf; conditions: for incremental binding free energy (ΔΔG), PTX-to-derivative modification: 35 °C; for ΔH 0 app: Van't Hoff analysis, 26–42 °C; for ΔG 0 app at 26 °C: from binding constant, −RT Ln Ka; for ΔS 0 app: slope of ΔG0app versus T
Description: Purified calf brain tubulin and chemicals were obtained as previously described. Tau-mCherry was expressed and purified as described previously. Human Kif5B-EGFP (amino acids 1-905), containing a C terminal fluorescent-tag followed by a 3C protease cleavage site and a 6 × His-tag was expressed and purified as in with some modifications. Prior to purification, cells were resuspended in 1:1 ratio of lysis buffer (30 mM HEPES pH 7.5, 300 mM NaCl, 0.5 mM ATP, 5% glycerol, 20 mM imidazole, […]) supplemented with 1× Protease inhibitor cocktail and benzonase to the final concentration of 25 units/ml. Cells were homogenized by repeated pipetting. Cells were lysed by spinning for 45 min at 40,000 rpm in 45 Ti fixed-angle rotor (Beckman Coulter) at 4 °C. The supernatant was incubated with pre-equilibrated HisPUR NiNTA agarose resin (Thermo Fisher Scientific) for 1 h in a tightly closed gravity-flow column (Thermo Fisher Scientific) at 4 °C by slowly rotating. Subsequently, the resin was washed once lysis buffer and then with buffer B (30 mM HEPES pH 7.5, 300 mM NaCl, 0.5 mM ATP, 5% glycerol, 30 mM imidazole, […]). The protein was eluted from the resin after an overnight cleavage of the 6 × His-tag with 3C HRV protease in lysis buffer at 4 °C. The eluted protein was further purified via size exclusion chromatography on Superdex 200 10/300 GL column equilibrated in exclusion buffer (30 mM HEPES pH 7.5, 300 mM NaCl, 0.5 mM ATP, 5% glycerol, […]). Peak fractions were analyzed via SDS-PAGE, pooled and the protein was concentrated with Amicon Ultra-15 Centrifugal Filter tubes (Millipore). Purified proteins were aliquoted, snap-frozen in liquid N2, and stored at −80 °C.
The equilibrium binding constant of 1a and 1b to the taxane site of assembled MTs were determined by the displacement of FTX2 from the taxane site in cross-linked MTs. The displacement isotherm of each ligand was measured at least three times in two different plates with a fluorescence polarization microplate reader, as described. A mixture of 50 nM taxane binding sites and 50 nM FTX2 in GAB buffer was sampled in a 96-well plate. […] After mixing the samples for 10 min by shaking at 250 rpm, they were incubated 20 min at the desired temperatures (26, 35 or 42 °C) and their anisotropies were measured using a Spark Tecan plater reader in fluorescence polarization at emission of 535 nm and excitation of 485 nm. A sample containing 50 nM taxane binding sites was employed as blank, and a 50 nM solution of FTX2 in GAB, 0.1 mM GTP was employed as anisotropy standard. G factor was calculated as a mean over several cells in different conditions. The molar saturation fraction, X b , of the probe for each competitor concentration is calculated from the polarization values measured, P. Measurements of the polarization of FTX2 completely displaced (P 0 ) and, in absence of the competitor ligand (P sat), are required for data processing. The binding of FTX2 in the presence of the competitor ligand (X b = (P–P 0 /P sat – P 0 ) · X sat) was calculated and best fitted to the equilibrium binding constant of the competitor assuming unitary stoichiometry and the binding constant of the reference ligand (FTX2) with a PC program (Equigra v5).
Once the equilibrium binding constants are measured at different temperatures, the standard free energy of binding at a given temperature is calculated from the binding constant as ΔG 0app = −RT Ln K a, the standard enthalpy of the binding reaction is calculated from the representation of Ln K a versus 1/T (Van’t Hoff representation), and the slope of this representation multiplied by −R is equal to −ΔH 0app. The standard entropy of binding to ΔS 0app is calculated from the slope of the linear regression of ΔG 0app versus T.

[3] = test system: HeLa cells; assay: MTT cytotoxicity assay, HeLa; type: cell-based; conditions: Homo sapiens, 48 h, read-out: Cytotoxicity IC50 HeLa
Description: Antiproliferative assays were performed as described. […] Then, increasing concentrations of drugs were added and incubated for 48 h prior to the reaction with the MTT solution. IC50 values were obtained by fitting the experimental data (absorbance at 570/690 nm) to a four-parameter logistic curve using SigmaPlot 14.5 software package (Systat Software, Inc., San Jose, CA, USA) and IC50 values were expressed as mean ± SEM from three independent experiments, each performed in duplicate.

[4] = ref footnote b 'As in ref .' (number not given)
[5] = equilibrium constants from anisotropy measurements, ref footnote c 'As in ref .' (number not given)

SMILES | K b 26 °C [1, 4] | K b 35 °C [1, 4] | K b 42 °C [1, 4] | ΔG 0 app at 26 °C [1, 4] | ΔS 0 app [1, 4] | incremental binding free energy (ΔΔG), PTX-to-derivative modification [2] [kJ mol^–1] | K b 26 °C [1, 5] | K b 35 °C [1, 5] | K b 42 °C [1, 5] | IC50 ([3]; MTT, mean ± SEM) [nM] | fold lower binding constant than PTX [2] [fold] | ΔH 0 app [2] | ΔG 0 app at 26 °C [2] | ΔS 0 app [2] | IC50 [3] [nM]
CC(=O)O[C@H]1C(=O)[C@@]2(C)[C@H]([C@H](OC(=O)c3ccccc3)[C@]3(O)C[C@H](OC(=O)[C@H](O)[C@@H](NC(=O)c4ccccc4)c4ccccc4)C(C)=C1C3(C)C)[C@]1(OC(C)=O)CO[C@@H]1C[C@@H]2O [PTX, Paclitaxel] | (2.64 ± 0.17) × 10^7 M-1 | (1.43 ± 0.17) × 10^7 M-1 | (0.94 ± 0.23) × 10^7 M-1 | –41.7 ± 0.2 kJ mol^–1 | –29.3 ± 13.1 J mol ^aK^–1 | – | – | – | – | – | – | – | – | – | –
CC(=O)O[C@H]1C(=O)[C@]2(C)[C@@H](OC(=O)[C@H](C)NC(=O)c3ccc(-c4c5cc(F)c(=O)cc-5oc5cc(O)c(F)cc45)c(C(=O)O)c3)C[C@H]3OC[C@@]3(OC(C)=O)[C@H]2[C@H](OC(=O)c2ccccc2)[C@]2(O)C[C@H](OC(=O)[C@H](O)[C@@H](NC(=O)c3ccccc3)c3ccccc3)C(C)=C1C2(C)C [FTX2, Flutax2] | – | – | – | – | – | −0.3 | (5.9 ± 0.3) × 10^7 M-1 | (2.2 ± 0.2) × 10^7 M-1 | (1.8 ± 0.2) × 10^7 M-1 | – | – | – | – | – | –
COc1ccc2c(c1)CC(NC(=O)CCCCCCCC(=O)OC1CC3OCC3(OC(C)=O)C3C(OC(=O)c4ccccc4)C4(O)CC(OC(=O)C(O)C(NC(=O)c5ccccc5)c5ccccc5)C(C)=C(C(OC(C)=O)C(=O)C13C)C4(C)C)CC2 [1b, 7-O-((S)-9″-(7‴-Methoxy-1‴,2‴,3‴,4‴-tetrahydronaphthalen-2‴-yl)amino) −9″-oxononanoyl) Paclitaxel] | – | – | – | – | – | 12.8 | – | – | – | 100 ± 20 | ~100 | –35 ± 7 kJ mol^–1 | –28.9 ± 0.3 kJ mol^–1 | 20 ± 5 J mol ^aK^–1 | –
CC(=O)OC1C(=O)C2(C)C(OC(=O)CCCCC(=O)OC3CCc4ccccc43)CC3OCC3(OC(C)=O)C2C(OC(=O)c2ccccc2)C2(O)CC(OC(=O)C(O)C(NC(=O)c3ccccc3)c3ccccc3)C(C)=C1C2(C)C (stereo not drawn) [1a, 7-O-(6″-O-(2‴,3‴-Dihydroinden-1‴-yl)hexanedioyl) Paclitaxel] | – | – | – | – | – | 9.8 | – | – | – | – | ~100 | –24 ± 4 kJ mol^–1 | –31.9 ± 0.1 kJ mol^–1 | –27 ± 5 J mol ^aK^–1 | 180 ± 20
